# Entries after “also recorded” stand apart in the source; their conditions may differ.
# What was measured:
# Format in all cases: in vivo, human
# PTSD = PTSD patients treated with flumazenil and/or naltrexone; settings: infusions and implants
# Text: Post Trauma Stress Disorder (PTSD), causes dysregulation of anxiety control that may damage the GABAA system and present as hypervigilance, sleep disturbance, anxiety, gastrointestinal (GIT) or bladder symptoms. We have been using flumazenil for more than 8 years to treat patients presenting complex. The infusions and implants give relief to the anxiety, sleep disturbance and the GIT symptoms as well as urinary symptoms in many well established PTSD patients.
# Sleep remained normal following this. The profound recovery of sleep in patients with PTSD using flumazenil and naltrexone by continuous delivery has not previously been described.
# [1] = Swelling at the site of subcutaneous injection of flumazenil solution; settings: 16 mg per 30 ml solution, 4 mg in 7.5 ml a day versus standard ampoules 4 mg in 40 ml
# Method: In our experience, this is the first flumazenil solution prepared for subcutaneous delivery making it possible to deliver 4 mg of flumazenil in a volume of just 7.5 ml per day. Clinically, this is preferred to the standard flumazenil preparations, which involve injecting 4 mg in 40 ml per day. For example, the lower volume results in less swelling at the site of injection.
# During our development of flumazenil ampoules we have found the preferred pH is about 4±1. In addition, the volume and dilution of flumazenil is preferably 16 mg per 30 ml. In our experience this was the first flumazenil made for subcutaneous delivery, and therefore, a dose of flumazenil at 4 mg can be administered in a volume of only 7.5 ml a day. Clinically, this is more convenient than the standard flumazenil ampoules which involve injecting 4 mg in a volume of 40 ml. […] In addition, the packaging of a dose of flumazenil of 16 mg in 30 ml enables clinical staff to use one ampoule for 4 days at 4 mg a day and one ampoule for 8 days at doses of 2 mg per day.
# craving for nicotine = assay: Nicotine craving and use in patients; settings: flumazenil by infusion or nasally/sublingually 50 to 200 micrograms per dose
# premenstrual tension = assay: Premenstrual anxiety and symptoms in women treated with flumazenil; settings: women complaining of premenstrual tension
# [2] = test system: benzodiazepine detoxification; assay: Benzodiazepine detoxification with subcutaneous flumazenil infusion
# Method: Benzodiazepines bring relief to stress and are involved in the release of dopamine. As with all other significant addictions, self-control is extremely damaged in patients with a severe benzodiazepine addiction. Our observations of the treatment of poly-drug dependency which includes benzodiazepine usually responds well to the use of flumazenil at 40-160 μg/hour together with 40-160 μg/hour or greater. […] The continual delivery of flumazenil at this rate allows most patients to reduce their benzodiazepine dosing over a few days to a week or two. The control of symptoms as these patients cease their benzodiazepine is controlled so that the majority of patients can cease benzodiazepine use successfully.
# We have used our solution of flumazenil at 16 mg per 30 ml with a pH of 4±1 as a subcutaneous infusion at 40 to 160 μg per hour as our standard treatment to reduce the symptoms associated with benzodiazepine detoxification.
# Anticonvulsants, such as sodium valproate at 500 to 1000 mg per day were used for the first 10 days of flumazenil treatment to reduce the risk of epileptic seizures. […] The infusion may require several weeks of treatment and can be followed up with a flumazenil infusion delivering 40 to 160 μg per hour or more, as required to complete detoxification from the opioid.
# anxiety [3] = assay: Anxiety during and after medication delivery; settings: flumazenil infusions; for many patients continued for very long periods afterwards
# Text: These observations appeared to indicate a cure or recovery of the patients underlying disease rather than relief of symptoms only. These observations included patients treated in five other years as well as the group treated in 2016-2017.
# methamphetamine use = assay: Survey of 109 patients, methamphetamine use after flumazenil infusion
# Text: In a survey of 109 patients treated with flumazenil 4.9% were using methamphetamines daily and this fell to 0.9% following treatment with the flumazenil infusion. Abstinence from methamphetamine use increased from 67% before flumazenil treatment to 87% following treatment. This means that 33% of patients using methamphetamines fell to 13% following treatment with flumazenil.
# [4] = test system: smoking of nicotine cigarettes; assay: Smoking of nicotine cigarettes in a group of 80 patients treated with flumazenil
# Text: We have found a reduction in smoking of nicotine cigarettes with the use of flumazenil. We were able to document that those smoking changed from 82.7% before treatment to 75% following treatment in a group of 80 patients being treated with flumazenil.
# any dependency = assay: Detoxification from any dependency, 108 patients followed
# anxiety [5] = assay: Anxiety states monitored in twenty one patients after flumazenil
# Text: Twenty one patients were monitored after treatment with flumazenil for the following states: (i) calmness, (ii) tenseness, (iii) relaxation, (iv) contentedness, (v) worry; and (vi) upset.
# opioid use = assay: Abstinence from opioids in 108 patients treated with flumazenil; settings: 91.2% before flumazenil
# Text: In the 108 patients treated with flumazenil abstinence from opioids increased from 91.2% before flumazenil to 100% following the flumazenil treatment.
# psychosis = assay: Drug or anxiety induced episodes of psychosis at detoxification; settings: patients with history of psychosis after ceasing cannabis, amphetamines and alcohol; sustained delivery
# cannabis use = assay: Survey of 109 patients, cannabis use after flumazenil infusion
# Text: In a survey of 109 patients daily use was close to halved from 10% to 5.5%.
# cannabis withdrawal = assay: Withdrawal from cannabis with high THC concentrations; settings: flumazenil 160 μg/hour
# Text: Cannabis use has changed in recent years with a significant cohort describing high tetrahydrocannabinol (THC) concentrations in potent strains which are cultivated for their high THC content. In the patient group using these high concentrations of THC, we have noted that a group of patients give a clear cut history of extreme nausea, vomiting, anxiety changing to serious paranoid thoughts and delusions followed by psychosis over the first 3-5 days of ceasing drug use.
# In a severe patient population, ondansetron may be given every 6-8 hours to assist in reducing the nausea and associated anxiety symptoms.
# Our results indicated a clear reduction in anxiety, and paranoid symptoms, allowing patients who otherwise would be unable to cope with the symptoms, to cease cannabis use.
# alcohol patients = assay: Survey of 84 alcohol patients after flumazenil infusions or implants
# Text: In a survey of 84 alcohol patients the percent of patients drinking daily fell from 14.5% to 5.5% following flumazenil infusions or implants.
structure (smiles),measurement,setting,value
CCOC(=O)c1ncn2c1CN(C)C(=O)c1cc(F)ccc1-2 [flumazenil],"PTSD symptoms (anxiety, sleep disturbance, GIT and urinary symptoms)",PTSD,give relief; also recorded: significant improvement
same,swelling of the tissues at the site of injection,[1],less swelling
same,craving for and use of nicotine,craving for nicotine,reduced craving and use
same,premenstrual symptoms,premenstrual tension,reduction in premenstrual symptoms
same,blocking of positive modulation of the GABAA receptor with benzodiazepines,[2]; flumazenil at 40-160 μg/hour,not significantly blocked
same,time to cease benzodiazepine use after commencement of the infusion,[2]; subcutaneous infusion 40 to 160 μg per hour,within a few days to a week
same,craving for benzodiazepines,"[2]; subcutaneous infusion 40 to 160 μg per hour, 16 mg per 30 ml, pH 4±1",decrease in their craving for benzodiazepines
same,anxiety during the time of medication delivery,anxiety [3],reduction of anxiety
same,patients using methamphetamines following treatment,methamphetamine use; 33% before treatment,13%
same,patients using methamphetamines daily following treatment,"methamphetamine use; 109 patients, flumazenil infusion, 4.9% before",0.9%
same,abstinence from methamphetamine use following treatment,"methamphetamine use; 109 patients, 67% before flumazenil treatment",87%
same,fall in those using (smoking) daily,[4]; from 78.1% to 71.4%,4%
same,those smoking following treatment,"[4]; group of 80 patients, 82.7% before treatment",75%
same,those using (smoking) daily following treatment,"[4]; same population, 78.1% before treatment",71.4%
same,"daily use of alcohol, smoking, cannabis, amphetamines, opioids and other drug use",any dependency,reduction in daily use
same,levels of relaxation following treatment,anxiety [5]; twenty one patients,statically significant increase
same,"states of calmness, tenseness, relaxation, contentedness, worry and upset",anxiety [5]; twenty one patients after treatment,improved
same,abstinence from opioids following treatment,opioid use,100%
same,onset of psychosis with detoxification,psychosis,prevents the onset of psychosis
same,daily cannabis use following treatment,"cannabis use; 109 patients, 10% before",5.5%
same,abstinence from cannabis following treatment,"cannabis use; 109 patients, 75% before",83.5%
same,"patient-reported cannabis cessation symptoms (nausea day one, anxiety, sleep, paranoid and psychotic thinking, suicidal thoughts)",cannabis use; patients who presented to cease cannabis,anxiety was decreased and sleep was better
same,"nausea, vomiting, anxiety, paranoid thoughts, delusions, psychosis on ceasing high-THC cannabis",cannabis withdrawal,controls or reduces the presence of these symptoms
same,percentage abstinent to alcohol following treatment,alcohol patients; 53.1% before,77.1%
same,percent of patients drinking daily following treatment,"alcohol patients; flumazenil infusions or implants, 14.5% before",5.5%
